Data taken from US12459918B2, “Isoquinolinone derivatives serving as rock protein kinase inhibitors and use thereof” (GUANGZHOU OCUSUN OPHTHALMIC BIOTECHNOLOGY CO., LTD., priority 2019, dated 2025).

Tested on: New Zealand rabbits with normal intraocular pressure
Assay: Reduction of intraocular pressure by repeated eye-drop administration for 14 days, experiment operation 1
Format: in vivo
Settings: for Change of intraocular pressure: negative control minus group
Source text: Experimental example 4. Experiment on reduction of intraocular pressure and ocular toxicity of New Zealand rabbits with normal intraocular pressure by repeated eye-drop administration for 14 days
The intraocular pressure reduction action and the potential ocular toxicity of compound 63 were explored by 14 days of repeated eye-drop administration in rabbits with normal intraocular pressure.
Male New Zealand rabbits, aged 97-127 days, weighted 2.6-3.5 kg, purchased from PizhouDongfang Breeding Co. Ltd.
The male New Zealand rabbits were randomly divided into 7 groups, with 6 rabbits per group. Animals were randomly divided according to body weight Animals in 1-7 groups were eye-dropped with solvent/control sample/test sample in both eyes, the volume of the administration was all 50 μL/eye, once per day for 14 consecutive days, and the day of the administration was recorded as Day 1. On Day 1, intraocular pressure of the animals was measured before the administration and in 1, 2, 4, 6, 8 and 10 hours after the administration, respectively; on Days 2-14, intraocular pressure of the animals was measured in 1 hour after daily administration for the group administered with K-115, and intraocular pressure of the animal was measured in 4 hours after daily administration for the other groups.

[1] = 4 mg/mL once per day, Day 2, 1 hour after daily administration
[2] = 4 mg/mL once per day, Day 3, 1 hour after daily administration
[3] = 4 mg/mL once per day, Day 4, 1 hour after daily administration
[4] = 4 mg/mL once per day, Day 5, 1 hour after daily administration
[5] = 4 mg/mL once per day, Day 6, 1 hour after daily administration
[6] = 4 mg/mL once per day, Day 7, 1 hour after daily administration
[7] = 4 mg/mL once per day, Day 8, 1 hour after daily administration
[8] = 4 mg/mL once per day, Day 9, 1 hour after daily administration
[9] = 4 mg/mL once per day, Day 10, 1 hour after daily administration
[10] = 4 mg/mL once per day, Day 11, 1 hour after daily administration
[11] = 4 mg/mL once per day, Day 12, 1 hour after daily administration
[12] = 4 mg/mL once per day, Day 13, 1 hour after daily administration
[13] = 4 mg/mL once per day, Day 14, 1 hour after daily administration

C[C@H]1CNCCCN1S(=O)(=O)c1cccc2cncc(F)c12 [Compound K-115, reference compound]
Mean intraocular pressure of both eyes (4 mg/mL both eyes, Day 1, 1 hour after administration): 7.72 mmHg | Mean intraocular pressure of both eyes (4 mg/mL both eyes, Day 1, 2 hours after administration): 9.00 mmHg | Mean intraocular pressure of both eyes (4 mg/mL both eyes, Day 1, 4 hours after administration): 9.67 mmHg | Mean intraocular pressure of both eyes (4 mg/mL both eyes, Day 1, 6 hours after administration): 10.56 mmHg | Mean intraocular pressure of both eyes (4 mg/mL both eyes, Day 1, 8 hours after administration): 10.28 mmHg | Mean intraocular pressure of both eyes (4 mg/mL both eyes, Day 1, 10 hours after administration): 12.81 mmHg | Mean intraocular pressure of both eyes (4 mg/mL both eyes, Day 1, before administration): 10.83 mmHg | Mean intraocular pressure of both eyes [1]: 6.83 mmHg | Change of intraocular pressure [1]: 4.25 mmHg | Mean intraocular pressure of both eyes [2]: 6.81 mmHg | Change of intraocular pressure [2]: 3.58 mmHg | Mean intraocular pressure of both eyes [3]: 6.92 mmHg | Change of intraocular pressure [3]: 3.69 mmHg | Mean intraocular pressure of both eyes [4]: 6.67 mmHg | Change of intraocular pressure [4]: 4.3 mmHg | Mean intraocular pressure of both eyes [5]: 6.75 mmHg | Change of intraocular pressure [5]: 2.56 mmHg | Mean intraocular pressure of both eyes [6]: 7.39 mmHg | Change of intraocular pressure [6]: 2.67 mmHg | Mean intraocular pressure of both eyes [7]: 7.53 mmHg | Change of intraocular pressure [7]: 3.78 mmHg | Mean intraocular pressure of both eyes [8]: 7.78 mmHg | Change of intraocular pressure [8]: 1.66 mmHg | Mean intraocular pressure of both eyes [9]: 7.94 mmHg | Change of intraocular pressure [9]: 1.81 mmHg | Mean intraocular pressure of both eyes [10]: 7.94 mmHg | Change of intraocular pressure [10]: 1.75 mmHg | Mean intraocular pressure of both eyes [11]: 7.89 mmHg | Change of intraocular pressure [11]: 1.64 mmHg | Mean intraocular pressure of both eyes [12]: 8.25 mmHg | Change of intraocular pressure [12]: 3.14 mmHg | Mean intraocular pressure of both eyes [13]: 8.50 mmHg | Change of intraocular pressure [13]: 2.47 mmHg | Change of intraocular pressure (4 mg/mL, Day 1, 1 hour after administration): 2.59 mmHg | Change of intraocular pressure (4 mg/mL, Day 1, 2 hours after administration): 1.97 mmHg | Change of intraocular pressure (4 mg/mL, Day 1, 4 hours after administration): 1.64 mmHg | Change of intraocular pressure (4 mg/mL, Day 1, 6 hours after administration): 1.38 mmHg | Change of intraocular pressure (4 mg/mL, Day 1, 8 hours after administration): 2.69 mmHg | Change of intraocular pressure (4 mg/mL, Day 1, 10 hours after administration): 1.61 mmHg | Change of intraocular pressure (4 mg/mL, Day 1, before administration): −0.94 mmHg
